Data on seven compounds can be found in patent US4921850A, “3-propenylcephem derivative” (Eisai Co., Ltd., priority 1986, dated 1990).

Structures are written as SMILES. Values after ≈ are worked out from the molar mass of the structure shown.

Common to all, as to assay: Anti-bacterial activity (MIC), agar dilution
Holding throughout (type): cell-based

One experiment has as its system Escher. coli NIHJ. The note with it: Escherichia coli, 18 h, Escher. coli NIHJ; agar dilution, about 10^6 CFU/ml, 18 hours, 37° C.; read-out: MIC. The method in brief:
(§1)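 Agar dilution; MH broth overnight cultures → ~10^6 CFU/ml; spotted on MH agar with twofold serial drug dilutions; 18 h, 37° C; MIC in μg/ml.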
For orientation: In agar dilution, organisms are placed on agar that contains the substance at set levels.

In the next experiment the test system is Staph. aureus 209-P. The note with it: Staphylococcus aureus, 209P, 18 h, Staph. aureus 209-P; agar dilution, about 10^6 CFU/ml, 18 hours, 37° C.; read-out: MIC. The essentials:
as §1

Experiment [1] has as its system Morganella morganii EP-14. The conditions noted are these: Morganella morganii, EP14, 18 h, about 10^6 CFU/ml, 37° C., read-out: MIC. The essentials:
as §1

For another experiment, the system named is Kleb. pneumoniae EK-6. The conditions noted are these: Klebsiella pneumoniae, EK6, 18 h, Kleb. pneumoniae EK-6; agar dilution, about 10^6 CFU/ml, 18 hours, 37° C.; read-out: MIC. The essentials: as §1
In a further experiment the test system is Pseud. aeruginosa EP-01. The note with it: Pseudomonas aeruginosa, EP01, 18 h, Pseud. aeruginosa EP-01; agar dilution, about 10^6 CFU/ml, 18 hours, 37° C.; read-out: MIC. The essentials: as §1
Another experiment deals with Ser. marcescens ES-75. The conditions noted are these: Serratia marcescens, ES75, 18 h, Ser. marcescens ES-75; agar dilution, about 10^6 CFU/ml, 18 hours, 37° C.; read-out: MIC. The method in brief:
as §1

Usually MIC stands for the least concentration at which growth counts as inhibited. Take `Nc1nc(/C(=N/OC(F)F)C(=O)N[C@@H]2C(=O)N3C(C(=O)[O-])=C(/C=C/C[n+]4ccc(C(=O)O)cc4)CS[C@H]23)ns1` [Example 115]: the MIC in the experiment with Escher. coli NIHJ was ≤ 0.025 µg/mL; in the experiment on Staph. aureus 209-P, 0.8 µg/mL (≈ 1.38 µM); in experiment [1], ≤ 0.025 µg/mL; in the experiment on Kleb. pneumoniae EK-6, ≤ 0.025 µg/mL; in the experiment with Pseud. aeruginosa EP-01 it was 3.13 µg/mL (≈ 5.38 µM); with Ser. marcescens ES-75, 0.05 µg/mL (≈ 0.086 µM).

With `Nc1nc(/C(=N/OC(F)F)C(=O)N[C@@H]2C(=O)N3C(C(=O)[O-])=C(/C=C/C[N+]45CCN(CC4)CC5)CS[C@H]23)ns1` [Example 116], the MIC with Escher. coli NIHJ was ≤ 0.025 µg/mL; in the experiment with Staph. aureus 209-P, 0.2 µg/mL (≈ 0.351 µM); in experiment [1] it was ≤ 0.025 µg/mL; in the experiment on Kleb. pneumoniae EK-6, ≤ 0.025 µg/mL; in the experiment on Pseud. aeruginosa EP-01, 1.56 µg/mL (≈ 2.73 µM); with Ser. marcescens ES-75 it was ≤ 0.025 µg/mL.

With `Nc1nc(/C(=N/OC(F)F)C(=O)N[C@@H]2C(=O)N3C(C(=O)[O-])=C(/C=C/C[N+](CCO)(CCO)CCO)CS[C@H]23)ns1` [Example 117], the MIC with Escher. coli NIHJ was 0.05 µg/mL (≈ 0.0823 µM); in the experiment with Staph. aureus 209-P, 0.4 µg/mL (≈ 0.658 µM); in experiment [1], ≤ 0.025 µg/mL; with Kleb. pneumoniae EK-6, 0.05 µg/mL (≈ 0.0823 µM); in the experiment with Pseud. aeruginosa EP-01 it was 1.56 µg/mL (≈ 2.57 µM); in the experiment on Ser. marcescens ES-75, 0.2 µg/mL (≈ 0.329 µM).

Consider `C[N+](C)(C/C=C/C1=C(C(=O)[O-])N2C(=O)[C@@H](NC(=O)/C(=N\OCF)c3nsc(N)n3)[C@H]2SC1)CC(N)=O` [Example 118, 7β-[2-(5-Amino-1,2,4-thiadiazol-3-yl)-(Z)-2-fluoromethoxyiminoacetamido]-3-[(E)-3-(carbamoylmethyldimethylammonio)-1-propen-1-yl]-3-cephem-4-carboxylate], for which the minimal inhibitory concentration (MIC) in the experiment on Escher. coli NIHJ was ≤ 0.025 µg/mL; in the experiment on Staph. aureus 209-P, 0.2 µg/mL (≈ 0.369 µM); in experiment [1], ≤ 0.025 µg/mL; in the experiment with Kleb. pneumoniae EK-6, ≤ 0.025 µg/mL; in the experiment with Pseud. aeruginosa EP-01 it was 0.4 µg/mL (≈ 0.737 µM); in the experiment with Ser. marcescens ES-75 it was 0.1 µg/mL (≈ 0.184 µM).

For `C[N+]1(C/C=C/C2=C(C(=O)[O-])N3C(=O)[C@@H](NC(=O)/C(=N\OCF)c4nsc(N)n4)[C@H]3SC2)CCN(S(N)(=O)=O)CC1` [Example 119, 7β-[2-(5-Amino-1,2,4-thiadiazol-3-yl)-(Z)-2-fluoromethoxyiminoacetamido]-3-[(E)-3-(1-methyl-4-sulfamoyl-1-piperazinio)-1-propen-1-yl]-3-cephem-4-carboxylate], the MIC with Escher. coli NIHJ was ≤ 0.025 µg/mL; in the experiment on Staph. aureus 209-P it was 0.2 µg/mL (≈ 0.323 µM); in experiment [1], ≤ 0.025 µg/mL; with Kleb. pneumoniae EK-6 it was ≤ 0.025 µg/mL; with Pseud. aeruginosa EP-01, 0.8 µg/mL (≈ 1.29 µM); in the experiment on Ser. marcescens ES-75, 0.05 µg/mL (≈ 0.0807 µM).

On to `C[N+](C)(C/C=C/C1=C(C(=O)[O-])N2C(=O)[C@@H](NC(=O)/C(=N\OCF)c3nsc(N)n3)[C@H]2SC1)Cc1nnco1` [Example 120, 7β-[2-(5-Amino-1,2,4-thiadiazol-3-yl)-(Z)-2-fluoromethoxyiminoacetamido]-3-[(E)-3-[(1,3,4-oxadiazol-2-yl)methyldimethylammonio]-1-propen-1-yl]-3-cephem-4-carboxylate], for which the MIC in the experiment with Escher. coli NIHJ is ≤ 0.025 µg/mL; in the experiment on Staph. aureus 209-P, 0.2 µg/mL (≈ 0.352 µM); in experiment [1], ≤ 0.025 µg/mL; in the experiment on Kleb. pneumoniae EK-6, ≤ 0.025 µg/mL; in the experiment on Pseud. aeruginosa EP-01 it was 0.8 µg/mL (≈ 1.41 µM); in the experiment on Ser. marcescens ES-75, 0.05 µg/mL (≈ 0.0881 µM).

As to `C[N+]1(C/C=C/C2=C(C(=O)[O-])N3C(=O)[C@@H](NC(=O)/C(=N\OCF)c4nsc(N)n4)[C@H]3SC2)CCN(C=N)CC1.Cl` [Example 123, 7β-[2-(5-Amino-1,2,4-thiadiazol-3-yl)-(Z)-2-fluoromethoxyiminoacetamido]-3-[(E)-3-(1-methyl-4-formimidoyl-1-piperazinio)-1-propen-1-yl]-3-cephem-4-carboxylate hydrochloride], the MIC in the experiment on Escher. coli NIHJ amounted to 0.05 µg/mL; in the experiment with Staph. aureus 209-P, 0.4 µg/mL; in experiment [1], 0.05 µg/mL; in the experiment with Kleb. pneumoniae EK-6 it was 0.05 µg/mL; with Pseud. aeruginosa EP-01, 1.56 µg/mL; with Ser. marcescens ES-75 it was 0.2 µg/mL.
